Experimental data reported in ChEMBL document CHEMBL1143489, “Design, synthesis, and enzymatic property of a sulfur-substituted analogue of trigalacturonic acid” (Bioorg Med Chem Lett, 2005).
pKd: −log10 of the molar value.

Biological target: T1, Endopolygalactyuronase (Chondrostereum purpureum, UniProt P79074)
T1 sequence (P79074 whole entry): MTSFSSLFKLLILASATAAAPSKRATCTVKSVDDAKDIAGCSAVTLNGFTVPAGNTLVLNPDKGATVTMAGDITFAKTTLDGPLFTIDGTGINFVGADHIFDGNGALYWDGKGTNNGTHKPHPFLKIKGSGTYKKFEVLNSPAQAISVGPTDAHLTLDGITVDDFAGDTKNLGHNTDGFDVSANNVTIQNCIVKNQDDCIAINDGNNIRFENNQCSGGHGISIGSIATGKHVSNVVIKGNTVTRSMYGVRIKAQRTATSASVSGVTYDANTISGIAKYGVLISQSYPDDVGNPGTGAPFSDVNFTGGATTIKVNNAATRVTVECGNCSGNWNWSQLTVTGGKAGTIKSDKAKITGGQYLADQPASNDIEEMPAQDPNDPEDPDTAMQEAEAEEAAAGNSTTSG
Experiment: Dissociation constant against endo-polygalacturonase 1

pKd: 6.70
SMILES: CO[C@H]1O[C@@H](C(=O)O)[C@H](S[C@H]2O[C@@H](C(=O)O)[C@H](O[C@H]3O[C@@H](C(=O)O)[C@H](O)[C@H](O)[C@@H]3O)[C@H](O)[C@@H]2O)[C@H](O)[C@@H]1O
